This is an account of results in patent US5066783A, “Antiviral peptides and means for treating herpes infections” (priority 1988, dated 1991).

The test system of one assay is HSV-1 strain MP-12. Kind of assay: Guinea pig cutaneous herpes infection model, HSV-1. The conditions noted are these: for skin lesion score: HSV-1 group, mean score. It counts as in vivo.
The next assay deals with HSV-2 strain HG-52. Kind of assay: Guinea pig cutaneous herpes infection model, HSV-2. It counts as in vivo. The conditions noted are these: for skin lesion score: HSV-2 group, mean score.
For another assay, the system named is HSV-2. Kind of assay: HSV-2 replication (virus yield) in serum-starved BHK 21/C13 cells. It counts as cell-based. The settings on record: 1 mM.
The next assay deals with HSV-1. The conditions noted are these: A. Alarcon et al., Antiviral Research, 4, 231 (1984); cited from earlier work.
Assay [1] has as its target HSV-2 ribonucleotide reductase (Human herpesvirus 2, UniProt P89462). In words: HSV-2 ribonucleotide reductase inhibition. It counts as biochemical. The conditions noted are these: data not shown. The text has this:
The precipitate was removed by centrifugation.

In assay [2] the test system is cellular ribonucleotide reductase from 96-V-2(600) cells. The settings on record: up to 1 mM; FIG. 1.
Assay [3] deals with cellular ribonucleotide reductase from BHK21/C13 cells. The settings on record: up to 1 mM; data not shown.
For assay [4], the target named is ribonucleotide reductase from HSV-1 (strain F)-infected BHK-21/C13 cells (Human herpesvirus 1, UniProt P08543). Kind of assay: HSV-1 ribonucleotide reductase (CDP reductase) inhibition. The settings on record: for % CDP REDUCTASE ACTIVITY: 75 μg protein extract.
Assay [5] concerns HSV-1 ribonucleotide reductase. Kind of assay: Neutralization of HSV-1 ribonucleotide reductase by anti-nonapeptide IgG, preadsorbed with nonapeptide. The conditions noted are these: FIG. 2.
The target in assay [6] is T1, herpes simplex viral ribonucleotide reductase (Human herpesvirus 1, UniProt P08543).
T1 construct: endogenous in cells
In words: biochemical. It counts as biochemical, herpes simplex virus.

[7] abbreviates: 4 hours post infection, A (after absorption).
Where [8] appears, read: 4 hours post infection, B (before absorption).
Where [9] appears, read: 12 hours post infection, A (after absorption).
Where [10] appears, read: 12 hours post infection, B (before absorption).
Setting [11] is: 24 hours post infection, A (after absorption).
The mark [12] stands for this setting: 24 hours post infection, B (before absorption).
Setting [13] is: 36 hours post infection, A (after absorption).
[14] abbreviates: 36 hours post infection, B (before absorption).
Setting [15] is: 75 μg enzyme preparation (21.6 units mg^-1), mean of four assays.

Like-named read-outs stand apart in the source and are kept apart here. Where a SMILES comes first, the peptide text is derived from it. Bridges are numbered along the chain shown (N, C = ends). [ ]: non-standard residue; d: D form. The star is where a group is joined. Ileψ(thiazoline)Cys = CC[C@H](C)[C@H](N)C1=N[C@H](C(=O)*)CS1; dOrn = NCCC[C@@H](N)C(=O)O

T1 sequence (P08543 whole entry): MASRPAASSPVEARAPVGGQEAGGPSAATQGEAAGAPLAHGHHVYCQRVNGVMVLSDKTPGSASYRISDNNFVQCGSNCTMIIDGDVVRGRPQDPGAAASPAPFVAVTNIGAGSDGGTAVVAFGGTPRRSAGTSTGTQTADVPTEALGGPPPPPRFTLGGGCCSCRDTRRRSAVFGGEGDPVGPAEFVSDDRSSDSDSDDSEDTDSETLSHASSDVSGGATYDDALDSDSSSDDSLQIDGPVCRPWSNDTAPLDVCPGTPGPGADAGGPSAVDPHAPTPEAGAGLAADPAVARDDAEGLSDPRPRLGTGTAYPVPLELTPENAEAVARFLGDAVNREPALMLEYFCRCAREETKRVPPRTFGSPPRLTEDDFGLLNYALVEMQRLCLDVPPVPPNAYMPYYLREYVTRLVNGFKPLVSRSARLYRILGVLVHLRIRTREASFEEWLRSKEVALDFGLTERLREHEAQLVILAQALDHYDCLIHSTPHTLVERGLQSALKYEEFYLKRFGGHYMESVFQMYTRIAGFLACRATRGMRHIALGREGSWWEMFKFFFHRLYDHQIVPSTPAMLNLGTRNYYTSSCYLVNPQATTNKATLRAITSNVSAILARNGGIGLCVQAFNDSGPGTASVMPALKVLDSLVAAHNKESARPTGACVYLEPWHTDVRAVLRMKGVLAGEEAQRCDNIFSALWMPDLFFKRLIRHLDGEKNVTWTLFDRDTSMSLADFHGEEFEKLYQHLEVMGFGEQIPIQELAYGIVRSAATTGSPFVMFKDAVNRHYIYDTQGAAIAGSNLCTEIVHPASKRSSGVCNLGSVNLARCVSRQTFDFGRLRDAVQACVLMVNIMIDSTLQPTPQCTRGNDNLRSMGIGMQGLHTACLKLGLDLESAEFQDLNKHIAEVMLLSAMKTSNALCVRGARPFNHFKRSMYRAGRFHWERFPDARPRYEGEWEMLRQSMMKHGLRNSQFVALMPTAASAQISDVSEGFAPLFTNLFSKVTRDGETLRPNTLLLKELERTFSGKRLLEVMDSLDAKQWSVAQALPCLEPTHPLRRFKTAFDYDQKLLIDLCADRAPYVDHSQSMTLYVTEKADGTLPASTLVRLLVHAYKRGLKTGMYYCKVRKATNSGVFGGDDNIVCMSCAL
Sequence of ribonucleotide reductase from HSV-1 (strain F)-infected BHK-21/C13 cells (P08543 whole entry): as above
Sequence of HSV-2 ribonucleotide reductase (P89462 whole entry): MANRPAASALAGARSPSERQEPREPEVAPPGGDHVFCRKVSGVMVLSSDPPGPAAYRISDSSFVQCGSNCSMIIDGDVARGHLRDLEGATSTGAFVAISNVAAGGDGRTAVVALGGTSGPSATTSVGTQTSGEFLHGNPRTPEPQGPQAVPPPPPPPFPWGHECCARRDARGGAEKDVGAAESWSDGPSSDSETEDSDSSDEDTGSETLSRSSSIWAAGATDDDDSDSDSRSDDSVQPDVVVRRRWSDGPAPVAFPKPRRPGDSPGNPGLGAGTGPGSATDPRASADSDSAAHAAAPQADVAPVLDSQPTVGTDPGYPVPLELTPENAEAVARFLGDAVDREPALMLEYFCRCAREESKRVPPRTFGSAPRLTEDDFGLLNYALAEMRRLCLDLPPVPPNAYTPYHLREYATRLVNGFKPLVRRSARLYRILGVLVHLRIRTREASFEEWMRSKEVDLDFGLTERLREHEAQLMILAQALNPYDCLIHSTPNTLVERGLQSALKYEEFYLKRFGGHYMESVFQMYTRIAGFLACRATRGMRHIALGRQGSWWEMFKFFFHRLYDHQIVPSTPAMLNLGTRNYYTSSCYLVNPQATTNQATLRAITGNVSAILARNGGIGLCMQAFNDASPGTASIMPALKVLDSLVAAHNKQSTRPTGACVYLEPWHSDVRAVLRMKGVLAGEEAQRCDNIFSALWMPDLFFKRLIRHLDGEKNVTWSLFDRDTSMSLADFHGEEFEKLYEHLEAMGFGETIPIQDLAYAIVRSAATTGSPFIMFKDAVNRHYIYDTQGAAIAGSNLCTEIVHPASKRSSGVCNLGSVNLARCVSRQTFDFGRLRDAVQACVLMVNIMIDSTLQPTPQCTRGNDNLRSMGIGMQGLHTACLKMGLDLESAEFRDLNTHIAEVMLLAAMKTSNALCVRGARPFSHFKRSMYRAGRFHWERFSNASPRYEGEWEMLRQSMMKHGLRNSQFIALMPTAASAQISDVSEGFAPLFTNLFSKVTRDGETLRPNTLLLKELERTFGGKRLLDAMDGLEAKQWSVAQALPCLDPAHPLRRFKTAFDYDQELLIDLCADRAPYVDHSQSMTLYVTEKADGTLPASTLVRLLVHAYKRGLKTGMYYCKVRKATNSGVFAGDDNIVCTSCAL

With `Nc1nc2c(ncn2COCCO)c(=O)[nH]1` [Acyclovir, acyclovir], the skin lesion score amounted to 0.50 in the assay with HSV-1 strain MP-12 (day 1, topical twice daily); 0.50 with HSV-1 strain MP-12 (day 2, topical twice daily); 0.28 in the assay with HSV-1 strain MP-12 (day 3, topical twice daily); 0.20 with HSV-1 strain MP-12 (day 4, topical twice daily); 0.20 in the assay on HSV-1 strain MP-12 (day 5, topical twice daily); 0.20 with HSV-1 strain MP-12 (day 6, topical twice daily). Moreover, the skin lesion score in the assay on HSV-1 strain MP-12 (day 7, topical twice daily) is 0.15; with HSV-1 strain MP-12 (day 8, topical twice daily), 0.00; in the assay on HSV-1 strain MP-12 (day 9, topical twice daily), 0.00; in the assay on HSV-1 strain MP-12 (day 10, topical twice daily), 0.00; in the assay on HSV-1 strain MP-12 (day 11, topical twice daily) it was 0.00; with HSV-2 strain HG-52 (day 1, topical twice daily) it was 0.50. Besides, the skin lesion score in the assay with HSV-2 strain HG-52 (day 2, topical twice daily) was found to be 0.50; in the assay with HSV-2 strain HG-52 (day 3, topical twice daily), 0.63; in the assay with HSV-2 strain HG-52 (day 4, topical twice daily), 0.67; in the assay with HSV-2 strain HG-52 (day 5, topical twice daily), 1.23; in the assay with HSV-2 strain HG-52 (day 6, topical twice daily), 0.57; in the assay on HSV-2 strain HG-52 (day 7, topical twice daily), 0.40. In addition, the skin lesion score in the assay with HSV-2 strain HG-52 (day 8, topical twice daily) was determined as 0.13; with HSV-2 strain HG-52 (day 9, topical twice daily), 0.13; in the assay with HSV-2 strain HG-52 (day 10, topical twice daily), 0.00; in the assay on HSV-2 strain HG-52 (day 11, topical twice daily) it was 0.00.

Take `CC[C@H](C)[C@H](N)C1=N[C@H](C(=O)N[C@@H](CC(C)C)C(=O)N[C@H](CCC(=O)O)C(=O)N[C@H](C(=O)N[C@H]2CCCCNC(=O)[C@H](CC(N)=O)NC(=O)[C@@H](CC(=O)O)NC(=O)[C@H](Cc3cnc[nH]3)NC(=O)[C@@H](Cc3ccccc3)NC(=O)[C@H]([C@@H](C)CC)NC(=O)[C@@H](CCCN)NC2=O)[C@@H](C)CC)CS1` [Bacitracin, bacitracin, reference compound] ({Ileψ(thiazoline)Cys}-L[dE]IK[dOrn]I[dF]H[dD]N; lactam 4-C): the virus titer in the assay with HSV-2 (setting [7]) turned out to be 0.0005 PFU/cell; with HSV-2 (setting [8]), 0.0007 PFU/cell; in the assay on HSV-2 (setting [9]) it was 0.007 PFU/cell; in the assay with HSV-2 (setting [10]), 0.005 PFU/cell; in the assay on HSV-2 (setting [11]), 0.06 PFU/cell; with HSV-2 (setting [12]) it was 0.06 PFU/cell. Further, the figures for the virus titer in the assay with HSV-2 (setting [13]) and in the assay on HSV-2 (setting [14]) were 0.06 PFU/cell and 0.03 PFU/cell, respectively. Further, the “activity against HSV-1 when used alone” value in the assay on HSV-1 was “inactive”.

As for `CC(C)C[C@H](NC(=O)[C@H](CC(=O)O)NC(=O)[C@H](CC(N)=O)NC(=O)[C@@H](NC(=O)[C@@H](NC(=O)[C@H](C)NC(=O)CNC(=O)[C@H](C)NC(=O)[C@@H](N)Cc1ccc(O)cc1)C(C)C)C(C)C)C(=O)O` [HSV 7-15, L-tyrosyl-L-alanyl-glycyl-L-alanyl-L-valyl-L-valyl-L-asparagyl-L-aspartyl- L-leucine], in assay [1], the “inhibition curve for the HSV-2 enzyme compared with HSV-1” value is reported as “nearly identical”. For the same compound, the “shortening the healing time and diminishing the symptoms of HSV-1 infection” value in the assay on HSV-1 strain MP-12 (summary of TABLE III) was “effective”. For the same compound, the “shortening healing time and alleviating the symptoms of HSV-2” value with HSV-2 strain HG-52 (summary of TABLE IV) is given as “effective”. Further, the virus titer in the assay with HSV-2 (setting [7]) was found to be 0.001 PFU/cell; with HSV-2 (setting [8]), 0.0006 PFU/cell; in the assay on HSV-2 (setting [9]) it was 0.01 PFU/cell; with HSV-2 (setting [10]), 0.006 PFU/cell; in the assay on HSV-2 (setting [11]) it was 0.5 PFU/cell; in the assay on HSV-2 (setting [12]), 0.4 PFU/cell. Also, the virus titer with HSV-2 (setting [13]) was found to be 1.1 PFU/cell; in the assay with HSV-2 (setting [14]) it was 0.8 PFU/cell. In addition, the “sensitivity of cellular enzyme to the peptide” value in assay [2] and in [3] was “completely insensitive” in each case. Moreover, the “% CDP REDUCTASE ACTIVITY” value in [4] (10 μM peptide) came to 96%; in [4] (25 μM peptide), 94%; in assay [4] (50 μM peptide), 80%; in [4] (100 μM peptide), 45%; in assay [4] (400 μM peptide), 9%. Also, the “concentration giving total inhibition” value in assay [4] (FIG. 1, 50 μg viral enzyme) was determined as 400 µM. The “nonapeptide concentration at which equivalence was reached (IgG neutralizing capacity eliminated)” value in [5] was found to be 10 µM.

On to H-STSYAGAVVNDL-OH [HSV 4-15], for which the “% CDP REDUCTASE ACTIVITY” value in assay [4] (10 μM peptide) was 87%; in [4] (25 μM peptide) it was 71%; in assay [4] (50 μM peptide), 47%; in [4] (100 μM peptide) it was 18%; in assay [4] (400 μM peptide) it was 11%.

“H-YAGTVINDL-OH [H--Tyr--Ala--Gly--Thr--Val--Ile--Asn--Asp--Leu--OH]”: in assay [6] (setting [15]), the IC50 came out at 15 µM.

“H-YAPAVINDL-OH [H--Tyr--Ala--Pro--Ala--Val--Ile--Asn--Asp--Leu--OH]” returned an IC50 in [6] of 37 µM.

As for “H-YAVVNDL-OH [H--Tyr--Ala--Val--Val--Asn--Asp--Leu--OH]”, the IC50 in assay [6] (read-out: IC50 (concentration producing 50% of the maximal inhibition of enzyme activity)) turned out to be 340 µM.

Compound “H-YSGAVVNDL-OH [H--Tyr--Ser--Gly--Ala--Val--Val--Asn--Asp--Leu--OH]” showed an IC50 in assay [6] (setting [15]) of 90 µM.

H-YTMLVVDDL-OH [EBV 7-15]: the “% CDP REDUCTASE ACTIVITY” value in assay [4] (10 μM peptide) turned out to be 100%; in [4] (25 μM peptide) it was 100%; in assay [4] (50 μM peptide), 100%; in assay [4] (100 μM peptide) it was 70%; in assay [4] (400 μM peptide), 10%.

Consider “H-YVVNDL-OH [H--Tyr--Val--Val--Asn--Asp--Leu--OH]”, for which, in [6], the IC50 worked out at 81 µM.
